In PubChem BioAssay AID1963449 (Molecular Pharmacology Branch, DTP, NCI, 2024):
pIC50: −log10 of the molar value.

Test system: 596521-263-R-J1-PDC complex spheroid growth
Assay: Anticancer human tumor 596521-263-R-J1-PDC patient-derived soft tissue sarcoma cell line growth inhibition [Asc]
Details: for pIC50: curve of first compound; for viability, T/C: stronger effect = lower value
In short: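 Concentration series start at each agent's clinical Cmax, or at 10 microM when none is established, and drop in half-log steps; agents are applied alone or together to complex spheroids built with HUVEC and hMSC.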

[1] = second compound 0.0316 µM, first compound 0.0316 µM
[2] = second compound 0.0316 µM, first compound 0.1 µM
[3] = second compound 0.0316 µM, first compound 0.316 µM
[4] = second compound 0.0316 µM, first compound 1 µM
[5] = second compound 0.1 µM, first compound 0.0316 µM
[6] = second compound 0.1 µM, first compound 0.1 µM
[7] = second compound 0.1 µM, first compound 0.316 µM
[8] = second compound 0.1 µM, first compound 1 µM
[9] = second compound 0.316 µM, first compound 0.0316 µM
[10] = second compound 0.316 µM, first compound 0.1 µM
[11] = second compound 0.316 µM, first compound 0.316 µM
[12] = second compound 0.316 µM, first compound 1 µM
[13] = second compound 1 µM, first compound 0.0316 µM
[14] = second compound 1 µM, first compound 0.1 µM
[15] = second compound 1 µM, first compound 0.316 µM
[16] = second compound 1 µM, first compound 1 µM
[17] = second compound 3.16 µM, first compound 0.0316 µM
[18] = second compound 3.16 µM, first compound 0.1 µM
[19] = second compound 3.16 µM, first compound 0.316 µM
[20] = second compound 3.16 µM, first compound 1 µM
[21] = second compound 10 µM, first compound 0.0316 µM
[22] = second compound 10 µM, first compound 0.1 µM
[23] = second compound 10 µM, first compound 0.316 µM
[24] = second compound 10 µM, first compound 1 µM
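Also: spheroids exposed to compounds for 7 days.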

With `C=C(F)C(=O)N1CCN(c2nc(OCC3CCCN3C)nc3c2CCN(c2cccc4cccc(Cl)c24)C3)CC1CC#N` (stereo unspecified) + Cc1c(S(C)(=O)=O)c(-c2cc(F)cc(N3CCN(c4ccc(NS(=O)(=O)c5ccc(NC(CCN6CCC(C(=O)OCCCP(=O)(O)O)CC6)CSc6ccccc6)c(S(=O)(=O)C(F)(F)F)c5)cc4)CC3)c2)c(-c2ccc(Cl)cc2)n1C(C)C the pIC50 (second compound 0.0316 µM) was 5.30, the pIC50 (second compound 0.1 µM) was 5.34 and the pIC50 (second compound 0.316 µM) was 5.37. The pIC50 (second compound 1 µM) was 5.56, the pIC50 (second compound 3.16 µM) was 6.18 and the pIC50 (second compound 10 µM) was 6.49. For the same molecule, the viability, T/C [1] was 110%, the viability, T/C [2] was 98.3% and the viability, T/C [3] was 87.6%. It also gave a viability, T/C [4] of 101%, a viability, T/C (second compound 0.0316 µM, first compound 3.16 µM) of 81.9% and a viability, T/C (second compound 0.0316 µM, first compound 10 µM) of 0.22%. It also gave a viability, T/C [5] of 98.4%, a viability, T/C [6] of 97.9% and a viability, T/C [7] of 93.9%. For the same molecule, the viability, T/C [8] was 91.1%, the viability, T/C (second compound 0.1 µM, first compound 3.16 µM) was 72.8% and the viability, T/C (second compound 0.1 µM, first compound 10 µM) was 0.18%. It also gave a viability, T/C [9] of 104%, a viability, T/C [10] of 98% and a viability, T/C [11] of 92.4%. For the same molecule, the viability, T/C [12] was 89.6%, the viability, T/C (second compound 0.316 µM, first compound 3.16 µM) was 68.2% and the viability, T/C (second compound 0.316 µM, first compound 10 µM) was 0.17%. The viability, T/C [13] was 84.3%, the viability, T/C [14] was 87% and the viability, T/C [15] was 76.7%. For the same molecule, the viability, T/C [16] was 80%, the viability, T/C (second compound 1 µM, first compound 3.16 µM) was 46% and the viability, T/C (second compound 1 µM, first compound 10 µM) was 1.18%. It also gave a viability, T/C [17] of 79.5%, a viability, T/C [18] of 67.4% and a viability, T/C [19] of 52.4%. It also gave a viability, T/C [20] of 50.5%, a viability, T/C (second compound 3.16 µM, first compound 3.16 µM) of 26.9% and a viability, T/C (second compound 3.16 µM, first compound 10 µM) of 0.2%. It also gave a viability, T/C [21] of 58.4%, a viability, T/C [22] of 50.1% and a viability, T/C [23] of 48.3%. It also gave a viability, T/C [24] of 44.2%, a viability, T/C (second compound 10 µM, first compound 3.16 µM) of 22% and a viability, T/C (second compound 10 µM, first compound 10 µM) of 1.02%.
`CCN1C(C(=O)NC23CCC(C(=O)O)(CC2)CC3)C(c2cccc(Cl)c2F)C2(C(=O)Nc3cc(Cl)ccc32)C12CCCCC2` (stereo unspecified) + Cc1c(S(C)(=O)=O)c(-c2cc(F)cc(N3CCN(c4ccc(NS(=O)(=O)c5ccc(NC(CCN6CCC(C(=O)OCCCP(=O)(O)O)CC6)CSc6ccccc6)c(S(=O)(=O)C(F)(F)F)c5)cc4)CC3)c2)c(-c2ccc(Cl)cc2)n1C(C)C was tested, and the pIC50 (second compound 0.0316 µM) was < 5.52, the pIC50 (second compound 0.1 µM) was < 5.52 and the pIC50 (second compound 0.316 µM) was < 5.52. It also gave a pIC50 (second compound 1 µM) of 5.62, a pIC50 (second compound 3.16 µM) of 6.34 and a pIC50 (second compound 10 µM) of 6.88. The viability, T/C (second compound 0.0316 µM, first compound 0.00949 µM) was 94.6%, the viability, T/C (second compound 0.0316 µM, first compound 0.03 µM) was 97.5% and the viability, T/C (second compound 0.0316 µM, first compound 0.0949 µM) was 94.3%. For the same molecule, the viability, T/C (second compound 0.0316 µM, first compound 0.3 µM) was 90.8%, the viability, T/C (second compound 0.0316 µM, first compound 0.949 µM) was 87.5% and the viability, T/C (second compound 0.0316 µM, first compound 3 µM) was 80.7%. For the same molecule, the viability, T/C (second compound 0.1 µM, first compound 0.00949 µM) was 89.5%, the viability, T/C (second compound 0.1 µM, first compound 0.03 µM) was 94.8% and the viability, T/C (second compound 0.1 µM, first compound 0.0949 µM) was 95.9%. For the same molecule, the viability, T/C (second compound 0.1 µM, first compound 0.3 µM) was 112%, the viability, T/C (second compound 0.1 µM, first compound 0.949 µM) was 87.7% and the viability, T/C (second compound 0.1 µM, first compound 3 µM) was 73.4%. The viability, T/C (second compound 0.316 µM, first compound 0.00949 µM) was 98.7%, the viability, T/C (second compound 0.316 µM, first compound 0.03 µM) was 92.4% and the viability, T/C (second compound 0.316 µM, first compound 0.0949 µM) was 84.7%. It also gave a viability, T/C (second compound 0.316 µM, first compound 0.3 µM) of 97.1%, a viability, T/C (second compound 0.316 µM, first compound 0.949 µM) of 83% and a viability, T/C (second compound 0.316 µM, first compound 3 µM) of 54.1%. The viability, T/C (second compound 1 µM, first compound 0.00949 µM) was 88.6%, the viability, T/C (second compound 1 µM, first compound 0.03 µM) was 76% and the viability, T/C (second compound 1 µM, first compound 0.0949 µM) was 67.2%. For the same molecule, the viability, T/C (second compound 1 µM, first compound 0.3 µM) was 83.1%, the viability, T/C (second compound 1 µM, first compound 0.949 µM) was 62.7% and the viability, T/C (second compound 1 µM, first compound 3 µM) was 46.1%. The viability, T/C (second compound 3.16 µM, first compound 0.00949 µM) was 64.5%, the viability, T/C (second compound 3.16 µM, first compound 0.03 µM) was 71% and the viability, T/C (second compound 3.16 µM, first compound 0.0949 µM) was 54.8%. For the same molecule, the viability, T/C (second compound 3.16 µM, first compound 0.3 µM) was 57.1%, the viability, T/C (second compound 3.16 µM, first compound 0.949 µM) was 42.2% and the viability, T/C (second compound 3.16 µM, first compound 3 µM) was 24.2%. It also gave a viability, T/C (second compound 10 µM, first compound 0.00949 µM) of 50.8%, a viability, T/C (second compound 10 µM, first compound 0.03 µM) of 53% and a viability, T/C (second compound 10 µM, first compound 0.0949 µM) of 51.7%. It also gave a viability, T/C (second compound 10 µM, first compound 0.3 µM) of 46.8%, a viability, T/C (second compound 10 µM, first compound 0.949 µM) of 33.8% and a viability, T/C (second compound 10 µM, first compound 3 µM) of 18.8%.
In the case of `CNC(C)C(=O)NC1CN(S(=O)(=O)c2cccc(S(=O)(=O)N3CCC4CCC(C(=O)NC(c5ccccc5)c5ccccc5)N4C(=O)C(NC(=O)C(C)NC)C3)c2)CCC2CCC(C(=O)NC(c3ccccc3)c3ccccc3)N2C1=O` (stereo unspecified) + Cc1c(S(C)(=O)=O)c(-c2cc(F)cc(N3CCN(c4ccc(NS(=O)(=O)c5ccc(NC(CCN6CCC(C(=O)OCCCP(=O)(O)O)CC6)CSc6ccccc6)c(S(=O)(=O)C(F)(F)F)c5)cc4)CC3)c2)c(-c2ccc(Cl)cc2)n1C(C)C, the pIC50 (second compound 0.0316 µM) was < 6.00, the pIC50 (second compound 0.1 µM) was < 6.00 and the pIC50 (second compound 0.316 µM) was < 6.00. The pIC50 (second compound 1 µM) was < 6.00, the pIC50 (second compound 3.16 µM) was 7.62 and the pIC50 (second compound 10 µM) was > 8.50. It also gave a viability, T/C (second compound 0.0316 µM, first compound 0.00316 µM) of 84.3%, a viability, T/C (second compound 0.0316 µM, first compound 0.01 µM) of 97.2% and a viability, T/C [1] of 75.4%. The viability, T/C [2] was 84.7%, the viability, T/C [3] was 89.2% and the viability, T/C [4] was 75.2%. For the same molecule, the viability, T/C (second compound 0.1 µM, first compound 0.00316 µM) was 86.1%, the viability, T/C (second compound 0.1 µM, first compound 0.01 µM) was 82.5% and the viability, T/C [5] was 82.1%. It also gave a viability, T/C [6] of 83%, a viability, T/C [7] of 71.9% and a viability, T/C [8] of 69.1%. For the same molecule, the viability, T/C (second compound 0.316 µM, first compound 0.00316 µM) was 91.8%, the viability, T/C (second compound 0.316 µM, first compound 0.01 µM) was 89.7% and the viability, T/C [9] was 70.2%. For the same molecule, the viability, T/C [10] was 70.1%, the viability, T/C [11] was 70.9% and the viability, T/C [12] was 56.1%. For the same molecule, the viability, T/C (second compound 1 µM, first compound 0.00316 µM) was 74.3%, the viability, T/C (second compound 1 µM, first compound 0.01 µM) was 63.5% and the viability, T/C [13] was 63.9%. It also gave a viability, T/C [14] of 64.3%, a viability, T/C [15] of 59.4% and a viability, T/C [16] of 49.5%. It also gave a viability, T/C (second compound 3.16 µM, first compound 0.00316 µM) of 54.1%, a viability, T/C (second compound 3.16 µM, first compound 0.01 µM) of 54% and a viability, T/C [17] of 51.8%. For the same molecule, the viability, T/C [18] was 42.4%, the viability, T/C [19] was 35.6% and the viability, T/C [20] was 32.3%. For the same molecule, the viability, T/C (second compound 10 µM, first compound 0.00316 µM) was 44.1%, the viability, T/C (second compound 10 µM, first compound 0.01 µM) was 38.6% and the viability, T/C [21] was 37.1%. It also gave a viability, T/C [22] of 34.2%, a viability, T/C [23] of 27% and a viability, T/C [24] of 20.8%.
